# Laboratory results as given in PubChem BioAssay AID1963838 (Molecular Pharmacology Branch, DTP, NCI, 2024).
# Test system: 855422-203-R-J1-PDC complex spheroid viability
# Test: Anticancer human tumor 855422-203-R-J1-PDC patient-derived bladder carcinoma cell line growth inhibition [POLQ]
# Conditions: for IC50: curve of first compound; for viability, T/C: stronger effect = lower value
# Outline: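 Growth inhibition in 3D: complex spheroids (tumor PDC, HUVEC, MSC) treated with POLQ inhibitor combinations; where Cmax unknown, highest tested concentration 10 microM, except SN-38 at 1 microM.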
# [1] = second compound 0.0316 µM, first compound 0.0316 µM
# [2] = second compound 0.0316 µM, first compound 0.1 µM
# [3] = second compound 0.0316 µM, first compound 0.316 µM
# [4] = second compound 0.0316 µM, first compound 1 µM
# [5] = second compound 0.0316 µM, first compound 3.16 µM
# [6] = second compound 0.0316 µM, first compound 10 µM
# [7] = second compound 0.1 µM, first compound 0.0316 µM
# [8] = second compound 0.1 µM, first compound 0.1 µM
# [9] = second compound 0.1 µM, first compound 0.316 µM
# [10] = second compound 0.1 µM, first compound 1 µM
# [11] = second compound 0.1 µM, first compound 3.16 µM
# [12] = second compound 0.1 µM, first compound 10 µM
# [13] = second compound 0.316 µM, first compound 0.0316 µM
# [14] = second compound 0.316 µM, first compound 0.1 µM
# [15] = second compound 0.316 µM, first compound 0.316 µM
# [16] = second compound 0.316 µM, first compound 1 µM
# [17] = second compound 0.316 µM, first compound 3.16 µM
# [18] = second compound 0.316 µM, first compound 10 µM
# [19] = second compound 1 µM, first compound 0.0316 µM
# [20] = second compound 1 µM, first compound 0.1 µM
# [21] = second compound 1 µM, first compound 0.316 µM
# [22] = second compound 1 µM, first compound 1 µM
# [23] = second compound 1 µM, first compound 3.16 µM
# [24] = second compound 1 µM, first compound 10 µM
# [25] = second compound 3.16 µM, first compound 0.0316 µM
# [26] = second compound 3.16 µM, first compound 0.1 µM
# [27] = second compound 3.16 µM, first compound 0.316 µM
# [28] = second compound 3.16 µM, first compound 1 µM
# [29] = second compound 3.16 µM, first compound 3.16 µM
# [30] = second compound 3.16 µM, first compound 10 µM
# [31] = second compound 10 µM, first compound 0.0316 µM
# [32] = second compound 10 µM, first compound 0.1 µM
# [33] = second compound 10 µM, first compound 0.316 µM
# [34] = second compound 10 µM, first compound 1 µM
# [35] = second compound 10 µM, first compound 3.16 µM
# [36] = second compound 10 µM, first compound 10 µM
# 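Also: spheroids exposed to compounds for seven days before readout.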
smiles,measurement,setting,value
COc1cc2cc(C(=O)CCC(=O)O)sc2cc1OC + Nc1ccc(C#CCN(C(=O)Cc2ncc(C(F)(F)F)cc2C(F)(F)F)c2ccc(F)cc2)nn1,IC50,second compound 0.0316 µM,> 10 µM
same,IC50,second compound 0.1 µM,> 10 µM
same,IC50,second compound 0.316 µM,> 10 µM
same,IC50,second compound 1 µM,> 10 µM
same,IC50,second compound 3.16 µM,> 10 µM
same,IC50,second compound 10 µM,> 10 µM
same,"viability, T/C",[1],97.8%
same,"viability, T/C",[2],121%
same,"viability, T/C",[3],97.6%
same,"viability, T/C",[4],86.3%
same,"viability, T/C",[5],109%
same,"viability, T/C",[6],94.5%
same,"viability, T/C",[7],99.8%
same,"viability, T/C",[8],101%
same,"viability, T/C",[9],91%
same,"viability, T/C",[10],82%
same,"viability, T/C",[11],138%
same,"viability, T/C",[12],109%
same,"viability, T/C",[13],104%
same,"viability, T/C",[14],105%
same,"viability, T/C",[15],90%
same,"viability, T/C",[16],94.1%
same,"viability, T/C",[17],107%
same,"viability, T/C",[18],92%
same,"viability, T/C",[19],86.8%
same,"viability, T/C",[20],104%
same,"viability, T/C",[21],102%
same,"viability, T/C",[22],98.7%
same,"viability, T/C",[23],97.3%
same,"viability, T/C",[24],90.4%
same,"viability, T/C",[25],92.4%
same,"viability, T/C",[26],111%
same,"viability, T/C",[27],94.9%
same,"viability, T/C",[28],97.5%
same,"viability, T/C",[29],97.1%
same,"viability, T/C",[30],88.6%
same,"viability, T/C",[31],92.8%
same,"viability, T/C",[32],92%
same,"viability, T/C",[33],87.1%
same,"viability, T/C",[34],102%
same,"viability, T/C",[35],96%
same,"viability, T/C",[36],88.5%
COc1ccc([C@@H](O)c2cc(-c3ncnc4cc(N5CCOCC5)ccc34)c(F)cc2Cl)nn1 + Nc1ccc(C#CCN(C(=O)Cc2ncc(C(F)(F)F)cc2C(F)(F)F)c2ccc(F)cc2)nn1,IC50,second compound 0.0316 µM,> 10 µM
same,IC50,second compound 0.1 µM,> 10 µM
same,IC50,second compound 0.316 µM,> 10 µM
same,IC50,second compound 1 µM,> 10 µM
same,IC50,second compound 3.16 µM,> 10 µM
same,IC50,second compound 10 µM,9.83 µM
same,"viability, T/C",[1],110%
same,"viability, T/C",[2],105%
same,"viability, T/C",[3],89%
same,"viability, T/C",[4],94.5%
same,"viability, T/C",[5],106%
same,"viability, T/C",[6],58.4%
same,"viability, T/C",[7],91.8%
same,"viability, T/C",[8],104%
same,"viability, T/C",[9],104%
same,"viability, T/C",[10],98.1%
same,"viability, T/C",[11],106%
same,"viability, T/C",[12],59.4%
same,"viability, T/C",[13],115%
same,"viability, T/C",[14],126%
same,"viability, T/C",[15],86.4%
same,"viability, T/C",[16],98.5%
same,"viability, T/C",[17],110%
same,"viability, T/C",[18],54.3%
same,"viability, T/C",[19],99.8%
same,"viability, T/C",[20],96.8%
same,"viability, T/C",[21],93.4%
same,"viability, T/C",[22],104%
same,"viability, T/C",[23],111%
same,"viability, T/C",[24],51%
same,"viability, T/C",[25],94.6%
same,"viability, T/C",[26],105%
same,"viability, T/C",[27],87.5%
same,"viability, T/C",[28],94.2%
same,"viability, T/C",[29],90.7%
same,"viability, T/C",[30],57.4%
same,"viability, T/C",[31],92.3%
same,"viability, T/C",[32],92.5%
same,"viability, T/C",[33],98.3%
same,"viability, T/C",[34],86.2%
same,"viability, T/C",[35],98.6%
same,"viability, T/C",[36],49.3%
